Counter-ions that a name gives are not always drawn.

By Kb is commonly meant the equilibrium dissociation constant of an antagonist, usually derived from a functional assay.

For one test, the target named is T1, 5HT2 Receptors (Rattus norvegicus, UniProt P14842).
T1 construct: from tissue; host or cells: rat external jugular vein (isolated, male Wistar)
T1 sequence (P14842 whole entry): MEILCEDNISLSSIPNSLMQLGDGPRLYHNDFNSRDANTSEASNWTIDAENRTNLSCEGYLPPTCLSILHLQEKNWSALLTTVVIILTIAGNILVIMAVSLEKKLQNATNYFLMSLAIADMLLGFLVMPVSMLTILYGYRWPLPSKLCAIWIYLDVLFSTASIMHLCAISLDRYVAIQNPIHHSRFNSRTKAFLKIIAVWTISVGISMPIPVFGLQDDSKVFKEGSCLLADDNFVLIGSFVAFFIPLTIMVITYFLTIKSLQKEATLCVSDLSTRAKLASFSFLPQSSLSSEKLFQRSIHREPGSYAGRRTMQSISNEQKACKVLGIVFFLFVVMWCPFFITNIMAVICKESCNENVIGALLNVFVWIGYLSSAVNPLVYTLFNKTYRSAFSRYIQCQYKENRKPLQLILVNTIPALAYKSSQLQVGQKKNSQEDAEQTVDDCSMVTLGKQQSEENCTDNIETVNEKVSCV
The test can be described thus: Apparent antagonist dissociation constant (KB) at 5HT2 receptors, serotonin-induced contraction of isolated rat external jugular vein. It is filed as cell-based, rat (male Wistar).
Conditions: not given
An excerpt: Male Wistar rats (about 150-300 gram weight) were killed and their external jugular veins and thoracic aortas dissected free of connective tissue, cannulated in situ and placed in a modified Krebs' bicarbonate buffer in a suitable tissue bath. Two L-shaped 30-gauge stainless-steel hypodermic needles were inserted in each cannula and the dissected vessels gently pushed onto the needles. One needle was attached with thread to a stationary glass rod and the other to the transducer. [The procedure employed was that described by Hooker, Calkins and Fleisch, Blood Vessels, 14, 1, (1977) for use with circular smooth muscle preparations.]
The modified Krebs' bicarbonate buffer was composed of the following (concentrations in millimoles): sodium chloride, 118.2; potassium chloride, 4.6; calcium chloride dihydrate, 1.6; potassium dihydrogenphosphate, 1.2; magnesium sulfate, 1.2; dextrose, 10.0; sodium bicarbonate, 24.8; and water q.s. to 1000 g. The tissue baths were maintained at 37° C. and were aerated with 95% oxygen: 5% carbon dioxide (v:v). An initial optimum resting force of 1 g and 4 g was applied to the jugular vein and aorta, respectively. Isometric contractions were recorded as changes in grams of force on a Beckman Dynograph with Statham UC-3 transducers and microscale accessory attachment. Tissues were allowed to equilibrate 1 to 2 hours before exposure to drugs. Control responses to serotonin in the jugular vein and to norepinephrine in the aorta were obtained. The vessels were then incubated with appropriate concentrations of the test compound for one hour. Responses to serotonin or to norepinephrine were then repeated in the presence of the test compound. Contraction to serotonin was evaluated in the jugular vein since this tissue produces marked responses to serotonin in the absence of alpha receptors. See Cohen and Wiley, J. Pharm. Exp. Ther., 205, 400 (1978). Alpha receptor antagonist activity was evaluated in the aorta.
Apparent antagonist dissociation constants were determined for each concentration of the test compound according to the following equation: [formula] wherein [B] is the concentration of the antagonist and the dose ratio is the ED50 of the agonist in the presence of the antagonist divided by the control ED50. […] The -log KB values obtained for representative sensitive compounds of this invention and are given below in Table 1. ln the Table, column I provides the Example Number of the compound evaluated in the screen; columns 2-6, the identity of the compound evaluated in the screen when taken with the structure provided; and column 7, the apparent dissociation constant for the test compound.
For `CO[C@H]1CC[C@H](NC(=O)[C@@H]2C[C@@H]3c4cccc5c4c(cn5C(C)C)C[C@H]3N(C)C2)CC1` (relative stereo) [Example 5, (8β)-trans-N-(4-Methoxycyclohexyl)-1-isopropyl-6-methylergoline-8-carboxamide], the antagonist dissociation constant (Kb) was 0.186 nM.

Regarding `CCCN1C[C@H](C(=O)NC2CCCCC2)C[C@@H]2c3cccc4c3c(cn4C(C)C)C[C@H]21` [Example 3, (8β)-N-Cyclohexyl-1-isopropyl-6-n-propylergoline-8-carboxamide], the antagonist equilibrium constant (Kb) is 0.794 nM.

As to `CO[C@H]1CC[C@@H](NC(=O)[C@@H]2C[C@@H]3c4cccc5c4c(cn5C)C[C@H]3N(C)C2)CC1` [Example 6, (8β)-cis-N-(4-Methoxycyclohexyl)-1,6-dimethylergoline-8-carboxamide maleate], the antagonist dissociation constant (Kb) is 0.269 nM.

With `CCn1cc2c3c(cccc31)[C@H]1C[C@@H](C(=O)N[C@H]3CC[C@@H](OC)CC3)CN(C)[C@@H]1C2` [Example 7, (8β)-cis-N-(4-Methoxycyclohexyl)-1-ethyl-6-methylergoline-8-carboxamide maleate], the antagonist equilibrium constant (Kb) is 0.229 nM.

`CN1C[C@H](C(=O)NC2CCCCC2)C[C@@H]2c3cccc4c3c(cn4C)C[C@H]21` [Example 8, (8β)-N-Cyclohexyl-1,6-dimethylergoline-8carboxamide]: the Kb was 0.2 nM.

Consider `CC(C)n1cc2c3c(cccc31)[C@H]1C[C@@H](C(=O)NC3CCCC3)CN(C)[C@@H]1C2` [Example 9, (8β)-N-Cyclopentyl-1-isopropyl-6-methylergoline-8-carboxamide], for which the Kb is 0.0468 nM.

Consider `CCn1cc2c3c(cccc31)[C@H]1C[C@@H](C(=O)NC3CCCCC3)CN(C)[C@@H]1C2` [Example 10, (8β)-N-Cyclohexyl-1-ethyl-6-methylergoline-8-carboxamide], for which the antagonist dissociation constant (Kb) was 0.562 nM.

For the compound `CC(C)n1cc2c3c(cccc31)[C@H]1C[C@@H](C(=O)NC3CCCCCC3)CN(C)[C@@H]1C2` [Example 12, (8β)-N-Cycloheptyl-1-isopropyl-6-methylergoline-8-carboxamide], the antagonist equilibrium constant (Kb) is 1.05 nM.

Turning to `CC1CCC(NC(=O)[C@@H]2C[C@@H]3c4cccc5c4c(cn5C(C)C)C[C@H]3N(C)C2)CC1` (stereo partly drawn) [Example 13, (8β)-N-(4-Methylcyclohexyl)-1-isopropyl-6-methylergoline-8-carboxamide], the antagonist dissociation constant (Kb) was 6.46 nM.

Turning to `CC(C)n1cc2c3c(cccc31)[C@H]1C[C@@H](C(=O)NC3CCCCC3O)CN(C)[C@@H]1C2` (stereo partly drawn) [Example 14, (8β)-N-(2-Hydroxycyclohexyl)-1-isopropyl-6-methylergoline-8-carboxamide], the antagonist equilibrium constant (Kb) is 0.0275 nM.

The test is the same for the next values; noted with them: rat external jugular vein, antagonism of serotonin contraction, 1 h incubation, 37° C; read-out: 5HT2 -Log KB (apparent dissociation constant) (converted).
As to `CC(C)n1cc2c3c(cccc31)[C@H]1C[C@@H](C(=O)N(C)C3CCCCC3)CN(C)[C@@H]1C2` [Example 2, (8β-N-Cyclohexyl-N-methyl-1-isopropyl-6-methylergoline-8-carboxamide maleate], the antagonist dissociation constant (Kb) was 1 nM.

With `CO[C@H]1CC[C@@H](NC(=O)[C@@H]2C[C@@H]3c4cccc5c4c(cn5C(C)C)C[C@H]3N(C)C2)CC1` [Example 4, (8β)-cis-N-(4-Methoxycyclohexyl)-1-isopropyl-methylergoline-8-carboxamide], the Kb is 0.186 nM.

Take `CC(C)n1cc2c3c(cccc31)[C@H]1C[C@@H](C(=O)N[C@H]3CC[C@H](O)CC3)CN(C)[C@@H]1C2` [Example 11, (8β)-trans-N-(4-Hydroxycyclohexyl)-1-isopropyl-methylergoline-8-carboxamide]: the Kb was 6.46 nM.

For the origin of these results see patent US4931447A, “Cycloalkylamides of (8β)-1-alkyl-6-(substituted) ergolines” (Eli Lilly and Company, priority 1989, dated 1990).
